In brackets after ≈: the same amount, converted by molar mass. Read-outs that look alike come from different tables or passages of the source.
What was measured:
[1] = test system: K. pneumoniae 968733 (CST-R); experiment: MIC assay (CLSI); assay type: cell-based, Klebsiella pneumoniae
Description: (§1) MIC assays [Clinical and Laboratory Standards Institute (CLSI) methodology] and serial passage studies were performed as described by Luther et al. ([6]). […] Resistant mutants were isolated, and their MIC values were determined and sent to Microbes NG (Birmingham, United Kingdom) for whole-genome sequencing and bioinformatic analysis.

[2] = test system: E. coli ATCC 25922 (parent / WT); experiment: microbe, parasite or virus in culture; settings: for MIC: Escherichia coli
Description: as §1

[3] = test system: Klebsiella pneumoniae ATCC 43816 PglJ, PhnJ, ThiH mutant; experiment: microbe, parasite or virus in culture
Description: as §1

[4] = test system: Klebsiella pneumoniae ATCC 43816 LptA L116Q mutant; experiment: microbe, parasite or virus in culture
Description: as §1

[5] = test system: Escherichia coli ATCC 25922 KdsD mutant; experiment: microbe, parasite or virus in culture
Description: as §1

[6] = test system: Klebsiella pneumoniae ATCC 43816 LptA I36N mutant; experiment: microbe, parasite or virus in culture
Description: as §1

[7] = test system: K. pneumoniae ATCC 43816 (parent / WT); experiment: microbe, parasite or virus in culture
Description: as §1

[8] = test system: Escherichia coli ATCC 25922 LptA E84D mutant; experiment: microbe, parasite or virus in culture
Description: as §1

[9] = test system: E. coli ATCC 25922 LptA Q62L mutant; experiment: microbe, parasite or virus in culture; settings: for MIC: Escherichia coli
Description: as §1

[10] = test system: Klebsiella pneumoniae NCTC 13443 LpxC, LpxD mutant; experiment: microbe, parasite or virus in culture
Description: as §1

[11] = test system: Klebsiella pneumoniae ATCC 43816 LapB mutant; experiment: microbe, parasite or virus in culture
Description: as §1

[12] = test system: K. pneumoniae NCTC 13443 (NDM-1) (parent / WT); experiment: microbe, parasite or virus in culture; settings: for MIC: Klebsiella pneumoniae
Description: as §1

[13] = test system: Klebsiella pneumoniae NCTC 13443 YejM mutant; experiment: microbe, parasite or virus in culture
Description: as §1

[14] = test system: K. pneumoniae ATCC 43816 LptA Q62L mutant; experiment: microbe, parasite or virus in culture; settings: for MIC: Klebsiella pneumoniae
Description: as §1

[15] = test system: K. pneumoniae NCTC 13443 (NDM-1) LptA Q62L mutant; experiment: microbe, parasite or virus in culture; settings: for MIC: Klebsiella pneumoniae
Description: as §1

[16] = test system: Klebsiella pneumoniae ATCC 43816 LptA I36S mutant; experiment: microbe, parasite or virus in culture
Description: as §1

[17] = test system: Klebsiella pneumoniae NCTC 13443 LptA I36S mutant; experiment: microbe, parasite or virus in culture
Description: as §1

E. coli ST131 (n=8) = experiment: MIC against isolate panel; assay type: cell-based, Escherichia coli; settings: CLSI microdilution; minimum and maximum MIC of the panel
Description: as §1

[18] = test system: Enterobacteriaceae (CS, Col-S) (n=22); assay type: cell-based; settings: CLSI microdilution; minimum and maximum MIC of the panel; carbapenem sensitive, colistin sensitive
Description: as §1

[19] = test system: panel of 121 Enterobacteriaceae including CRE, MDR, and XDR isolates; experiment: organism not typed
Description: as §1

E. coli = assay type: cell-based, Escherichia coli; settings: serial passage in broth at sub-MIC and multiples of the MIC
Description: as §1
(§2) Fig. S8. Resistance development studies by serial passage. Broth containing a single antibiotic at sub-MIC and multiples of the MIC were inoculated with bacteria. Drug concentrations were […]
(§3) day 1 and 2 of passaging.
(§4) (1 picture or pasted object on this page, not shown here)

K. pneumoniae = assay type: cell-based, Klebsiella pneumoniae; settings: serial passage in broth at sub-MIC and multiples of the MIC
Description: as §1, §2, §3, §4

[20] = CLSI method, clone harboring LptA Q62L
[21] = CLSI microdilution method, 121 isolates

## C[C@@H](O)[C@H]1C(=O)N2C(C(=O)O)=C(S[C@@H]3CN[C@H](C(=O)N(C)C)C3)[C@H](C)[C@H]12 [Meropenem]
[1]; Klebsiella pneumoniae, read-out: MIC K. pneumoniae 968733 (CST-R) Parent
  MIC: 0.031 µg/mL (≈ 0.0808 µM)
[2]; ATCC25922, read-out: MIC E. coli ATCC 25922 Parent
  MIC: 0.063 µg/mL (≈ 0.164 µM)
[2]; ATCC25922, read-out: MIC Escherichia coli ATCC 25922 WT
  MIC: ≤ 0.06 µg/mL
[3]; Klebsiella pneumoniae, ATCC43816, read-out: MIC Klebsiella pneumoniae ATCC 43816 PglJ, PhnJ, ThiH (1x)
  MIC: 0.13 µg/mL (≈ 0.339 µM)
[4]; Klebsiella pneumoniae, ATCC43816, read-out: MIC Klebsiella pneumoniae ATCC 43816 LptA L116Q (1x)
  MIC: ≤ 0.06 µg/mL
[5]; Escherichia coli, ATCC25922, read-out: MIC Escherichia coli ATCC 25922 KdsD (2x)
  MIC: 0.13 µg/mL (≈ 0.339 µM)
[6]; Klebsiella pneumoniae, ATCC43816, read-out: MIC Klebsiella pneumoniae ATCC 43816 LptA I36N (1x)
  MIC: ≤ 0.06 µg/mL
[7]; Klebsiella pneumoniae, ATCC43816, read-out: MIC Klebsiella pneumoniae ATCC 43816 WT
  MIC: 0.13 µg/mL (≈ 0.339 µM)
[8]; Escherichia coli, ATCC25922, read-out: MIC Escherichia coli ATCC 25922 LptA E84D (1x)
  MIC: ≤ 0.06 µg/mL
[9]; ATCC25922, read-out: MIC E. coli ATCC 25922 Q62L mutant
  MIC: 0.063 µg/mL (≈ 0.164 µM)
[9]; ATCC25922, read-out: MIC Escherichia coli ATCC 25922 LptA Q62L (7x)
  MIC: ≤ 0.06 µg/mL
[10]; Klebsiella pneumoniae, NCTC13443, read-out: MIC Klebsiella pneumoniae NCTC 13443 LpxC, LpxD (1x)
  MIC: > 64 µg/mL
[11]; Klebsiella pneumoniae, ATCC43816, read-out: MIC Klebsiella pneumoniae ATCC 43816 LapB (1x)
  MIC: 0.13 µg/mL (≈ 0.339 µM)
[12]; NCTC13443, read-out: MIC K. pneumoniae NCTC 13443 (NDM-1) Parent
  MIC: > 8 µg/mL
[12]; NCTC13443, read-out: MIC Klebsiella pneumoniae NCTC 13443 WT
  MIC: > 64 µg/mL
[13]; Klebsiella pneumoniae, NCTC13443, read-out: MIC Klebsiella pneumoniae NCTC 13443 YejM (1x)
  MIC: > 64 µg/mL
[14]; ATCC43816, read-out: MIC K. pneumoniae ATCC 43816 Q62L mutant
  MIC: 0.063 µg/mL (≈ 0.164 µM)
[14]; ATCC43816, read-out: MIC Klebsiella pneumoniae ATCC 43816 LptA Q62L (4x)
  MIC: ≤ 0.06 µg/mL
[15]; NCTC13443, read-out: MIC K. pneumoniae NCTC 13443 (NDM-1) Q62L mutant
  MIC: > 8 µg/mL
[15]; NCTC13443, read-out: MIC Klebsiella pneumoniae NCTC 13443 LptA Q62L (5x)
  MIC: > 64 µg/mL
[16]; Klebsiella pneumoniae, ATCC43816, read-out: MIC Klebsiella pneumoniae ATCC 43816 LptA I36S (1x)
  MIC: ≤ 0.06 µg/mL
[17]; Klebsiella pneumoniae, NCTC13443, read-out: MIC Klebsiella pneumoniae NCTC 13443 LptA I36S (2x)
  MIC: > 64 µg/mL
E. coli ST131 (n=8)
  MIC range E. coli ST131 (n=8): <=0.06-8 µg/mL
[18]
  MIC range Enterobacteriaceae (CS, Col-S) (n=22): ≤0.06 to 0.5 µg/mL
[19]; read-out: MIC50 (n=121)
  MIC50: > 8 µg/mL
[19]; read-out: MIC90 (n=121)
  MIC90: > 64 µg/mL

## Colistin
E. coli
  Development of resistance, day of passaging, E. coli: 5 to 7 days
K. pneumoniae
  Development of resistance, day of passaging, K. pneumoniae: 1 to 3 days
[1]; CLSI method, colistin-resistant strain
  MIC K. pneumoniae 968733 (CST-R) Parent: >8 micrograms per milliliter
[2]; Table S9 panel, WT
  MIC Escherichia coli ATCC 25922 WT: 0.25 µg/mL
[3]; Table S9 panel, other mutation
  MIC Klebsiella pneumoniae ATCC 43816 PglJ, PhnJ, ThiH (1x): 0.13 µg/mL
[4]; Table S9 panel
  MIC Klebsiella pneumoniae ATCC 43816 LptA L116Q (1x): 0.13 µg/mL
[5]; Table S9 panel, other mutation
  MIC Escherichia coli ATCC 25922 KdsD (2x): 0.25 µg/mL
[6]; Table S9 panel
  MIC Klebsiella pneumoniae ATCC 43816 LptA I36N (1x): ≤ 0.06 µg/mL
[7]; CLSI method, parent strain
  MIC K. pneumoniae ATCC 43816 Parent: 0.125 micrograms per milliliter
[7]; Table S9 panel, WT
  MIC Klebsiella pneumoniae ATCC 43816 WT: 0.13 µg/mL
[8]; Table S9 panel
  MIC Escherichia coli ATCC 25922 LptA E84D (1x): 0.25 µg/mL
[9]; [20]
  MIC E. coli ATCC 25922 Q62L mutant: 0.25 micrograms per milliliter
[9]; Table S9 panel
  MIC Escherichia coli ATCC 25922 LptA Q62L (7x): 0.13 µg/mL
[10]; Table S9 panel, other mutation
  MIC Klebsiella pneumoniae NCTC 13443 LpxC, LpxD (1x): 0.25 µg/mL
[11]; Table S9 panel, other mutation
  MIC Klebsiella pneumoniae ATCC 43816 LapB (1x): 0.13 µg/mL
[12]; Table S9 panel, WT
  MIC Klebsiella pneumoniae NCTC 13443 WT: 0.25 µg/mL
[13]; Table S9 panel, other mutation
  MIC Klebsiella pneumoniae NCTC 13443 YejM (1x): 0.25 µg/mL
[14]; [20]
  MIC K. pneumoniae ATCC 43816 Q62L mutant: 0.125 micrograms per milliliter
[14]; Table S9 panel
  MIC Klebsiella pneumoniae ATCC 43816 LptA Q62L (4x): 0.13 µg/mL
[15]; [20]
  MIC K. pneumoniae NCTC 13443 (NDM-1) Q62L mutant: 0.125 micrograms per milliliter
[15]; Table S9 panel
  MIC Klebsiella pneumoniae NCTC 13443 LptA Q62L (5x): 0.13 µg/mL
[16]; Table S9 panel
  MIC Klebsiella pneumoniae ATCC 43816 LptA I36S (1x): 0.13 µg/mL
[17]; Table S9 panel
  MIC Klebsiella pneumoniae NCTC 13443 LptA I36S (2x): 0.13 µg/mL
[18]
  MIC range Enterobacteriaceae (CS, Col-S) (n=22): 0.06 to 0.5 µg/mL
[19]; [21]
  MIC50 (n=121): 0.13 µg/mL
  MIC90 (n=121): > 8 µg/mL
